Assay in all cases: Sulforhodamine B (SRB) cytotoxicity test
Format in all cases: cell-based

Assay [1] relates to MCF-7 (Breast Cancer). The following applies: cells cultured 3 days with compound, read-out: Half Inhibitory Concentration for Tumor Cell Growth (IC50). As to the method: (§1) Sulforhodamine B (SRB) test was used for screening the selective compounds of the present invention according to their anti-tumor activity on four different tumor cell lines. In SRB analysis, the cultured cells were trypsinized, counted and diluted to a suitable concentration (5000-7500 cells/100 μl) with a culture medium. The cells were inoculated into a 96-well microtiter plate at 100 μl suspension/well. After 20 hours, the test compounds which were diluted in the culture medium to 2×1000 nM˜2×0.001 nM were added to each well. The cells were then cultured for 3 days, fixed with 100 μl 10% trichloroacetic acid at 4° C. for 1 hour, and then stained with 0.2% SRB/1% acetic acid at room temperature for 20 min. The unbound dye was rinsed with 1% acetic acid. The bound dye was dissolved with 200 μl 10 mM Tris-base. The amount of the bound dye was calculated from OD value detected at the wavelength of 515 nm. The amount of the bound dye was in direct proportion to the total amount of cell proteins. The data was analyzed with Kaleida Graph program, and the half inhibitory concentration (IC50) was calculated. Epothilones D and B were detected in parallel for Comparison. The results of the cytotoxicity experiments on the selected test compounds of the present invention are shown as follows. The other compounds of the present invention may also be detected with a similar method.

For assay [2], the system named is NCI/ADR-RES (MDR Breast Cancer). The following applies: cells cultured 3 days with compound, read-out: Half Inhibitory Concentration for Tumor Cell Growth (IC50). As to the method:
as §1

In assay [3] the test system is NCl-H460 (Lung Cancer). The conditions noted are these: cells cultured 3 days with compound, read-out: Half Inhibitory Concentration for Tumor Cell Growth (IC50). The method, then: as §1
Assay [4] deals with SF-268 (Glioma). The following applies: cells cultured 3 days with compound, read-out: Half Inhibitory Concentration for Bacterial Growth (IC50). As to the method: as §1

Read-outs that look alike come from different tables or passages of the source.

Regarding 14-N(CH3)2 Epothilone B [II-L], the IC50 in assay [1] was determined as 0.05 nM; in assay [2] it was 0.1 nM; in assay [3], 0.5 nM; in assay [4], 1 nM.

For 14-NH2 Epothilone B [II-B], the IC50 in assay [1] worked out at 0.1 nM; in assay [2] it was 0.5 nM; in assay [3], 0.2 nM; in assay [4], 0.2 nM.

With 14-NH2 Epothilone D [II-A], the IC50 in assay [1] was 7 nM; in assay [2] it was 12 nM; in assay [3], 7 nM; in assay [4] it was 6 nM.

Take `C/C(=C\c1csc(C)n1)[C@@H]1C[C@@H]2O[C@]2(C)CCC[C@H](C)[C@H](O)[C@@H](C)C(=O)C(C)(C)[C@@H](O)CC(=O)O1` [Epo B, Epothilone B, reference compound]: the IC50 in assay [1] is 0.5 nM; in assay [2], 5 nM; in assay [3], 0.7 nM; in assay [4], 0.8 nM.

Turning to `C/C1=C/C[C@@H](/C(C)=C/c2csc(C)n2)OC(=O)C[C@H](O)C(C)(C)C(=O)[C@H](C)[C@@H](O)[C@@H](C)CCC1` [Epo D, Epothilone D, reference compound], the IC50 in assay [1] came to 13 nM; in assay [2], 42 nM; in assay [3], 17 nM; in assay [4], 18 nM.

As for `COC1/C=C(/C)CCC[C@H](C)[C@H](O)[C@@H](C)C(=O)C(C)[C@@H](O)CC(=O)O[C@@H]1/C(C)=C/c1csc(C)n1` (stereo partly drawn) [II-N], the IC50 in assay [1] (Homo sapiens, MCF7, 72 h) amounted to 2 nM; in assay [2] (Homo sapiens, 72 h), 7 nM; in assay [3] (72 h) it was 2 nM; in assay [4] (Homo sapiens, 72 h), 3 nM.

The values above are taken from patent publication US8895590B2, “Epothilone compounds, preparation method and use thereof” (priority 2010, dated 2014).
